Results taken from US20100111947A1, “PHARMACEUTICAL COMPOSITION COMPRISING ANTIBODY COMPOSITION WHICH SPECIFICALLY BINDS TO GANGLIOSIDE GM2” (KYOWA HAKKO KIRIN CO., LTD., priority 2008, published 2010).

System: KMS-11 cells (human multiple myeloma cell)
Assay: Antitumor effect against KMS-11 cells transplanted subcutaneously into SCID mice (tumor volume V/V0, T/C)
Format: in vivo
Conditions: SCID mouse, KMS-11 xenograft, KM8969 1 mg/kg, L-PAM 3 mg/kg, tail vein
Procedure: Ten days after the cell transplantation, a diameter of a tumor was measured with calipers, and a tumor volume was calculated using the following formula.
(Formula) Tumor volume=short diameter×short diameter […]×0.5
Individuals having the tumor volume within the range of 140 to 184 mm^3 were selected, and grouped such that the average of tumor volume was to be almost the same. Each of following administration groups A to D was administered to the mice. Incidentally, the grouped day was defined as Day 0.
C. Group administering Melphalan (hereinafter referred to as L-PAM; Sigma) solely: 3 mg/kg was administered on Day 0 and Day 7.
With time, the tumor volume was measured. The antitumor effect was evaluated by comparing average values of a tumor volume change (V/V0) when the tumor volume on Day 0 in each group was defined as V0.

N[C@@H](Cc1ccc(N(CCCl)CCCl)cc1)C(=O)O [L-PAM, Melphalan]
T/C (V/V0 of group divided by V/V0 of negative control group) (Day 0): 1.0000 | T/C (V/V0 of group divided by V/V0 of negative control group) (Day 4): 0.8624 | T/C (V/V0 of group divided by V/V0 of negative control group) (Day 7): 0.8354 | T/C (V/V0 of group divided by V/V0 of negative control group) (Day 10): 0.6430 | T/C (V/V0 of group divided by V/V0 of negative control group) (Day 14): 0.5255 | T/C (V/V0 of group divided by V/V0 of negative control group) (Day 17): 0.4159 | T/C (V/V0 of group divided by V/V0 of negative control group) (Day 21): 0.2881 | T/C (V/V0 of group divided by V/V0 of negative control group) (Day 24): 0.2872 | T/C (V/V0 of group divided by V/V0 of negative control group) (Day 28): 0.2348
